In ChEMBL document CHEMBL2074223 (Mol Pharmacol, 2000):

Key:
Format in all cases: functional, cell-based
[1] = target: T1, ATP-dependent translocase ABCB1 (Homo sapiens, UniProt P08183); experiment: TP_TRANSPORTER: increase in Calcein-AM intracellular accumulation (Calcein-AM: 1 uM, Ditekiren: 20 uM) in MDR1-expressing LLC-PK1 cells; conditions: pig, llc-pk1, 20 µM
Bile salt export pump [2] = target: T2, Bile salt export pump (Mus musculus, UniProt Q9QY30); experiment: TP_TRANSPORTER: increase in Calcein-AM intracellular accumulation (Calcein-AM: 1 uM, Ditekiren: 20 uM) in Bsep-expressing LLC-PK1 cells; conditions: pig, llc-pk1, 20 µM
T2 sequence (Q9QY30 whole entry): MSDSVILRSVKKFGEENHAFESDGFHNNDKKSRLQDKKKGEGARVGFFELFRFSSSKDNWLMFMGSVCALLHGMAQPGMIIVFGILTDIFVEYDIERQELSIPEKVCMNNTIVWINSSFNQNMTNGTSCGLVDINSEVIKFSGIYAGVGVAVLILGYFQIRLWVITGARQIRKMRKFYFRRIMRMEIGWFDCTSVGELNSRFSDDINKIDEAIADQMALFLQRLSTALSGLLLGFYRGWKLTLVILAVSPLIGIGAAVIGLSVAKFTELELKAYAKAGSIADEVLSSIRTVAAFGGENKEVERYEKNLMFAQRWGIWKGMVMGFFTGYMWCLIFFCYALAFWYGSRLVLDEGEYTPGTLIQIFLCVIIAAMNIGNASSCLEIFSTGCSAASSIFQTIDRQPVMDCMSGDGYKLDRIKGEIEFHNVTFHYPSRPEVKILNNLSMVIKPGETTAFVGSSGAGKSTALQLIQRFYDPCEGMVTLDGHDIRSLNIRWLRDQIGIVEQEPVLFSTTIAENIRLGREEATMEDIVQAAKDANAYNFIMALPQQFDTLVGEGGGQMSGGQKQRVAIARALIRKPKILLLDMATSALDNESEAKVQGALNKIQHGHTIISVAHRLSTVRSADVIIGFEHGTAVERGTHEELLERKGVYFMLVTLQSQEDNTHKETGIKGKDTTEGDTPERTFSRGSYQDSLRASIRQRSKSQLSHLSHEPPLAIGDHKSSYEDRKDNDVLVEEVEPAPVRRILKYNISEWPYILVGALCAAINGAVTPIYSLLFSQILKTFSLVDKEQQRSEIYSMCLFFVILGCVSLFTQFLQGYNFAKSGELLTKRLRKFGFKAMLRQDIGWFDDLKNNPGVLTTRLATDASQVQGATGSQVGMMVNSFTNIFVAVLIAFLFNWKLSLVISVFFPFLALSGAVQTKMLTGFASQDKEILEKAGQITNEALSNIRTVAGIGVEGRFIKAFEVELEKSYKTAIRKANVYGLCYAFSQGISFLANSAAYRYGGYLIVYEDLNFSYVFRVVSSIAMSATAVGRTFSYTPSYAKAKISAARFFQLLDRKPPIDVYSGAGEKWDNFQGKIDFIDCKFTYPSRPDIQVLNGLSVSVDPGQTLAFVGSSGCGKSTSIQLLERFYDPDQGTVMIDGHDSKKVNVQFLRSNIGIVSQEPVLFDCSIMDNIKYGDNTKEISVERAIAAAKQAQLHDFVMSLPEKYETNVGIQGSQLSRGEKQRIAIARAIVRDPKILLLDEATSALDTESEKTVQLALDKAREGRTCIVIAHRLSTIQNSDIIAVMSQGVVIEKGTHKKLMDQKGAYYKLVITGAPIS

Bile salt export pump [3] = target: T2, Bile salt export pump; experiment: (§1) TP_TRANSPORTER: intracellular accumulation in Bsep-expressing LLC-PK1 cells; conditions: pig
[4] = target: T1, ATP-dependent translocase ABCB1; experiment: (§2) TP_TRANSPORTER: intracellular accumulation in MDR1-expressing LLC-PK1 cells; conditions: pig
Bile salt export pump [5] = target: T2, Bile salt export pump; experiment: TP_TRANSPORTER: increase in Calcein-AM intracellular accumulation (Calcein-AM: 1 uM, Reserpine: 20 uM) in Bsep-expressing LLC-PK1 cells; conditions: pig, llc-pk1, 20 µM
[6] = system: CC[C@]1(O)C[C@@H]2CN(CCc3c([nH]c4ccccc34)[C@@](C(=O)OC)(c3cc4c(cc3OC)N(C)[C@H]3[C@@](O)(C(=O)OC)[C@H](OC(C)=O)[C@]5(CC)C=CCN6CC[C@]43[C@@H]65)C2)C1; experiment: as §2
[7] = substrate: CC[C@]1(O)C[C@@H]2CN(CCc3c([nH]c4ccccc34)[C@@](C(=O)OC)(c3cc4c(cc3OC)N(C)[C@H]3[C@@](O)(C(=O)OC)[C@H](OC(C)=O)[C@]5(CC)C=CCN6CC[C@]43[C@@H]65)C2)C1; experiment: as §1

T1 sequence (P08183 whole entry): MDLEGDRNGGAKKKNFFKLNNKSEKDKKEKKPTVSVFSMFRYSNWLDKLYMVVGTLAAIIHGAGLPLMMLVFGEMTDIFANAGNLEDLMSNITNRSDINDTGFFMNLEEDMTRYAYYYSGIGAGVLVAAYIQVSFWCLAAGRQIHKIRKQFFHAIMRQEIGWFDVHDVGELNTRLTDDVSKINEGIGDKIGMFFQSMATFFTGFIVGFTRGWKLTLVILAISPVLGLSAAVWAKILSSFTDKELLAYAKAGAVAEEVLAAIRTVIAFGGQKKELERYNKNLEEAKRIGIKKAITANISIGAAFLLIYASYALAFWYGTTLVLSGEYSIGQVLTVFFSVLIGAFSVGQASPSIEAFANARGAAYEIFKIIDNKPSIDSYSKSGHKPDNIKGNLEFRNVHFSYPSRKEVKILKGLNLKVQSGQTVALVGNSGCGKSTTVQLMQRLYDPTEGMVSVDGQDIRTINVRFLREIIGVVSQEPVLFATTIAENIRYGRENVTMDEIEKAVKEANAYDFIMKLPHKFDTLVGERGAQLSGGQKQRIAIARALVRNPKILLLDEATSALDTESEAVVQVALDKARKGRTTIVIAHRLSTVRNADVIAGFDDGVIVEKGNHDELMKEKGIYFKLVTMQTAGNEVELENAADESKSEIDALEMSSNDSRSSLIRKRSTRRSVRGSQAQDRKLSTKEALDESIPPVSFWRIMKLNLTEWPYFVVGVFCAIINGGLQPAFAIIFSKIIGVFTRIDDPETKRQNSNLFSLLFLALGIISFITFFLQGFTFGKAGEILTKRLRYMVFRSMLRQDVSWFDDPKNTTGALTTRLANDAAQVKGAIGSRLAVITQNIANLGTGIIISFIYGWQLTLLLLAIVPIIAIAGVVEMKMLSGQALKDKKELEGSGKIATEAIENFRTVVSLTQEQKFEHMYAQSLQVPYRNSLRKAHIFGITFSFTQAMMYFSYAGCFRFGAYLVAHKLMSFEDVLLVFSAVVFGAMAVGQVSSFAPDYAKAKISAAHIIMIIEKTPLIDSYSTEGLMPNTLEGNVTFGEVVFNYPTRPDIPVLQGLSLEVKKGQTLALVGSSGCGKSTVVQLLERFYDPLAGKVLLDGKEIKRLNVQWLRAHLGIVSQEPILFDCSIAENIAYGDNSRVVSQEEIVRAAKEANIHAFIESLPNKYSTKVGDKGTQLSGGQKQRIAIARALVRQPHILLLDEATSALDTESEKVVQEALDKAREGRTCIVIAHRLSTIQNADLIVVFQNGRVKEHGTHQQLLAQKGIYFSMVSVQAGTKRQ

In the case of `CC[C@H](C)[C@H](NC(=O)[C@@H](C[C@H](O)[C@H](CC(C)C)NC(=O)[C@H](Cc1c[nH]cn1)N(C)C(=O)[C@H](Cc1ccccc1)NC(=O)[C@@H]1CCCN1C(=O)OC(C)(C)C)C(C)C)C(=O)NCc1ccccn1`, the Activity [1] is reported as “is not an inhibitor [-]” and the Activity (Bile salt export pump [2]) is reported as “inhibitor [+]”.

With `CC(=O)OCOC(=O)CN(CC(=O)OCOC(C)=O)Cc1c(OC(C)=O)ccc2c1Oc1c(ccc(OC(C)=O)c1CN(CC(=O)OCOC(C)=O)CC(=O)OCOC(C)=O)C21OC(=O)c2ccccc21` the Activity (Bile salt export pump [3]) was “substrate [+]” and the Activity [4] was “substrate [+]”.

`COc1cccc2c1C(=O)c1c(O)c3c(c(O)c1C2=O)C[C@@](O)(C(C)=O)C[C@@H]3O[C@H]1C[C@H](N)[C@H](O)[C@H](C)O1` [DAUNORUBICIN] was tested, and the Activity (Bile salt export pump [3]) was “is not a substrate [-]” and the Activity [4] was “substrate [+]”.

In the case of `C[C@H]1O[C@@H](O[C@H]2[C@@H](O)C[C@H](O[C@H]3[C@@H](O)C[C@H](O[C@H]4CC[C@@]5(C)[C@H](CC[C@@H]6[C@@H]5C[C@@H](O)[C@]5(C)[C@@H](C7=CC(=O)OC7)CC[C@]65O)C4)O[C@@H]3C)O[C@@H]2C)C[C@H](O)[C@@H]1O` [DIGOXIN], the Activity (Bile salt export pump [3]) is reported as “is not a substrate [-]”.

With `CC(=O)O[C@H]1C(=O)[C@@]2(C)[C@H]([C@H](OC(=O)c3ccccc3)[C@]3(O)C[C@H](OC(=O)[C@H](O)[C@@H](NC(=O)c4ccccc4)c4ccccc4)C(C)=C1C3(C)C)[C@]1(OC(C)=O)CO[C@@H]1C[C@@H]2O` [PACLITAXEL] the Activity (Bile salt export pump [3]) was “is not a substrate [-]” and the Activity [4] was “substrate [+]”.

With `COC(=O)[C@H]1[C@H]2C[C@@H]3c4[nH]c5cc(OC)ccc5c4CCN3C[C@H]2C[C@@H](OC(=O)c2cc(OC)c(OC)c(OC)c2)[C@@H]1OC` [RESERPINE] the Activity (Bile salt export pump [5]) was “inhibitor [+]”.

For `COC(=O)c1ccccc1-c1c2ccc(=N)cc-2oc2cc(N)ccc12.Cl` [RHODAMINE123], the Activity (Bile salt export pump [3]) was “is not a substrate [-]” and the Activity [4] was “substrate [+]”.

For `CC[C@]1(O)C[C@H]2CN(CCc3c([nH]c4ccccc34)[C@@](C(=O)OC)(c3cc4c(cc3OC)N(C=O)[C@H]3[C@@](O)(C(=O)OC)[C@H](OC(C)=O)[C@]5(CC)C=CCN6CC[C@]43[C@@H]65)C2)C1` [VINCRISTINE], the Activity (Bile salt export pump [3]) was “is not a substrate [-]” and the Activity [4] was “substrate [+]”.

“ATP-dependent translocase ABCB1 (Homo sapiens)” showed a Km [6] of 99.4 µM.

B1: Bile salt export pump (Mus musculus) (protein)
chain: MSDSVILRSVKKFGEENHAFESDGFHNNDKKSRLQDKKKGEGARVGFFELFRFSSSKDNWLMFMGSVCALLHGMAQPGMIIVFGILTDIFVEYDIERQELSIPEKVCMNNTIVWINSSFNQNMTNGTSCGLVDINSEVIKFSGIYAGVGVAVLILGYFQIRLWVITGARQIRKMRKFYFRRIMRMEIGWFDCTSVGELNSRFSDDINKIDEAIADQMALFLQRLSTALSGLLLGFYRGWKLTLVILAVSPLIGIGAAVIGLSVAKFTELELKAYAKAGSIADEVLSSIRTVAAFGGENKEVERYEKNLMFAQRWGIWKGMVMGFFTGYMWCLIFFCYALAFWYGSRLVLDEGEYTPGTLIQIFLCVIIAAMNIGNASSCLEIFSTGCSAASSIFQTIDRQPVMDCMSGDGYKLDRIKGEIEFHNVTFHYPSRPEVKILNNLSMVIKPGETTAFVGSSGAGKSTALQLIQRFYDPCEGMVTLDGHDIRSLNIRWLRDQIGIVEQEPVLFSTTIAENIRLGREEATMEDIVQAAKDANAYNFIMALPQQFDTLVGEGGGQMSGGQKQRVAIARALIRKPKILLLDMATSALDNESEAKVQGALNKIQHGHTIISVAHRLSTVRSADVIIGFEHGTAVERGTHEELLERKGVYFMLVTLQSQEDNTHKETGIKGKDTTEGDTPERTFSRGSYQDSLRASIRQRSKSQLSHLSHEPPLAIGDHKSSYEDRKDNDVLVEEVEPAPVRRILKYNISEWPYILVGALCAAINGAVTPIYSLLFSQILKTFSLVDKEQQRSEIYSMCLFFVILGCVSLFTQFLQGYNFAKSGELLTKRLRKFGFKAMLRQDIGWFDDLKNNPGVLTTRLATDASQVQGATGSQVGMMVNSFTNIFVAVLIAFLFNWKLSLVISVFFPFLALSGAVQTKMLTGFASQDKEILEKAGQITNEALSNIRTVAGIGVEGRFIKAFEVELEKSYKTAIRKANVYGLCYAFSQGISFLANSAAYRYGGYLIVYEDLNFSYVFRVVSSIAMSATAVGRTFSYTPSYAKAKISAARFFQLLDRKPPIDVYSGAGEKWDNFQGKIDFIDCKFTYPSRPDIQVLNGLSVSVDPGQTLAFVGSSGCGKSTSIQLLERFYDPDQGTVMIDGHDSKKVNVQFLRSNIGIVSQEPVLFDCSIMDNIKYGDNTKEISVERAIAAAKQAQLHDFVMSLPEKYETNVGIQGSQLSRGEKQRIAIARAIVRDPKILLLDEATSALDTESEKTVQLALDKAREGRTCIVIAHRLSTIQNSDIIAVMSQGVVIEKGTHKKLMDQKGAYYKLVITGAPIS
For B1, the Km [7] was 38.3 µM.
